Experimental data: PubChem BioAssay AID256 (DTP/NCI, 2004)
Inconclusive results and toxic doses are left out. How the source made its calls: active means survival T/C of 150% or more; inactive means T/C below 125% in these data.

Test system: CD2F1 mice, L1210 leukemia ip, survival T/C
Test: NCI In Vivo Anticancer Drug Screen. Data for tumor model L1210 Leukemia (intraperitoneal) in CD2F1 (CDF1) mice
Conditions: higher = longer survival
Outline: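 In this screen, transplantable tumors were grown in mice given either the compound or its vehicle. Results were expressed as the treated measurement relative to the control measurement.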

[1] = endpoint: mean survival time, dose: 100.0 mg/kg/injection, schedule: Q04DX003 (ip), vehicle: saline with Tween-80
[2] = endpoint: mean survival time, dose: 200.0 mg/kg/injection, schedule: Q04DX003 (ip), vehicle: saline with Tween-80
[3] = endpoint: mean survival time, dose: 400.0 mg/kg/injection, schedule: Q04DX003 (ip), vehicle: saline with Tween-80
[4] = endpoint: mean survival time, dose: 50.0 mg/kg/injection, schedule: Q01DX009 (ip), vehicle: Klucel (hydroxypropylcellulose) (HPC)
[5] = endpoint: mean survival time, dose: 100.0 mg/kg/injection, schedule: Q01DX001 (ip), vehicle: saline with Tween-80
[6] = endpoint: mean survival time, dose: 200.0 mg/kg/injection, schedule: Q01DX001 (ip), vehicle: saline with Tween-80
[7] = endpoint: mean survival time, dose: 400.0 mg/kg/injection, schedule: Q01DX001 (ip), vehicle: saline with Tween-80
[8] = endpoint: mean survival time, dose: 100.0 mg/kg/injection, schedule: Q01DX001 (ip), vehicle: saline
[9] = endpoint: mean survival time, dose: 200.0 mg/kg/injection, schedule: Q01DX001 (ip), vehicle: saline
[10] = endpoint: mean survival time, dose: 400.0 mg/kg/injection, schedule: Q01DX001 (ip), vehicle: saline
[11] = endpoint: median survival time, dose: 25.0 mg/kg/injection, schedule: Q01DX005 (ip), vehicle: distilled water + Tween-80
[12] = endpoint: median survival time, dose: 50.0 mg/kg/injection, schedule: Q01DX005 (ip), vehicle: distilled water + Tween-80
[13] = endpoint: median survival time, dose: 100.0 mg/kg/injection, schedule: Q01DX005 (ip), vehicle: distilled water + Tween-80
[14] = endpoint: median survival time, dose: 200.0 mg/kg/injection, schedule: Q01DX005 (ip), vehicle: distilled water + Tween-80

Measured: T/C

COc1ccc(CCNC(=O)c2ccc(OC)c(OC)c2)cc1OC
inactive: endpoint: mean survival time, dose: 12.5 mg/kg/injection, schedule: Q01DX009 (ip), vehicle: other 104 % of control | endpoint: mean survival time, dose: 25.0 mg/kg/injection, schedule: Q01DX009 (ip), vehicle: other 90 % of control | endpoint: mean survival time, dose: 50.0 mg/kg/injection, schedule: Q01DX009 (ip), vehicle: other 103 % of control | endpoint: mean survival time, dose: 100.0 mg/kg/injection, schedule: Q01DX009 (ip), vehicle: other 98 % of control | endpoint: mean survival time, dose: 200.0 mg/kg/injection, schedule: Q01DX009 (ip), vehicle: other 97 % of control

COc1ccc(NC(=O)CC(C)C(=O)O)cc1 (stereo not drawn)
inactive: [1] 101 % of control | [2] 100 % of control | [3] 101 % of control

COC(=O)c1ccc(NC(=O)Cc2c(O)c3c(c(C)c2OC)COC3=O)cc1N
inactive: endpoint: mean survival time, dose: 100.0 mg/kg/injection, schedule: Q04DX002 (ip), vehicle: saline 100 % of control | endpoint: mean survival time, dose: 200.0 mg/kg/injection, schedule: Q04DX002 (ip), vehicle: saline 112 % of control | endpoint: median survival time, dose: 100.0 mg/kg/injection, schedule: Q04DX002 (ip), vehicle: saline 102 % of control | endpoint: median survival time, dose: 200.0 mg/kg/injection, schedule: Q04DX002 (ip), vehicle: saline 106 % of control

OC(CC1=NCCS1)(c1ccccc1)c1ccccc1
inactive: [1] 93 % of control | [2] 87 % of control | [3] 98 % of control

CC(=O)N(c1nc(Cl)c2cc[nH]c2n1)C1OC(CO)C(O)C1O (stereo not drawn)
inactive: endpoint: mean survival time, dose: 12.5 mg/kg/injection, schedule: Q01DX005 (ip), vehicle: water 100 % of control | endpoint: mean survival time, dose: 25.0 mg/kg/injection, schedule: Q01DX005 (ip), vehicle: water 100 % of control | endpoint: mean survival time, dose: 50.0 mg/kg/injection, schedule: Q01DX005 (ip), vehicle: water 101 % of control | endpoint: mean survival time, dose: 100.0 mg/kg/injection, schedule: Q01DX005 (ip), vehicle: water 101 % of control | endpoint: mean survival time, dose: 200.0 mg/kg/injection, schedule: Q01DX005 (ip), vehicle: water 103 % of control

CCN(CC)CCOc1ccc(C2=CC3(CCCCC3)c3ccccc32)cc1
inactive: endpoint: mean survival time, dose: 12.5 mg/kg/injection, schedule: Q04DX002 (ip), vehicle: saline with Tween-80 106 % of control | endpoint: mean survival time, dose: 25.0 mg/kg/injection, schedule: Q04DX002 (ip), vehicle: saline with Tween-80 98 % of control

OCc1ccccc1OC1OC(CO)C(O)C(O)C1O (stereo not drawn)
inactive: [4] 96 % of control | endpoint: mean survival time, dose: 100.0 mg/kg/injection, schedule: Q01DX009 (ip), vehicle: Klucel (hydroxypropylcellulose) (HPC) 101 % of control | endpoint: mean survival time, dose: 200.0 mg/kg/injection, schedule: Q01DX009 (ip), vehicle: Klucel (hydroxypropylcellulose) (HPC) 108 % of control

c1ccc2c(c1)Nc1ccncc1S2
inactive: [1] 94 % of control | [2] 96 % of control | [3] 112 % of control

CCOC(=O)c1c(C)cc(O)cc1O
inactive: [1] 95 % of control | [2] 95 % of control | [3] 95 % of control

CCCCCCCCCCCCOc1ccc(Cl)cc1Sc1cc(Cl)ccc1OCCCCCCCCCCCC
inactive: [5] 92 % of control | [6] 93 % of control | [7] 86 % of control

CN(C)CCC(=O)C(c1ccccc1)c1ccccc1
inactive: endpoint: mean survival time, dose: 75.0 mg/kg/injection, schedule: Q01DX001 (ip), vehicle: saline 97 % of control | endpoint: mean survival time, dose: 150.0 mg/kg/injection, schedule: Q01DX001 (ip), vehicle: saline 101 % of control

Cc1cc([N+](=O)[O-])c(S(N)(=O)=O)c([N+](=O)[O-])c1
inactive: endpoint: mean survival time, dose: 25.0 mg/kg/injection, schedule: Q01DX009 (ip), vehicle: Klucel (hydroxypropylcellulose) (HPC) 98 % of control | [4] 95 % of control

NCC(OCC(=O)O)C(Cl)(Cl)Cl (stereo not drawn)
inactive: [1] 101 % of control | [2] 96 % of control | [3] 101 % of control

CCCCCCCCCCCCCCCCCC[n+]1ccc(C(=O)c2ccccc2)cc1
inactive: endpoint: mean survival time, dose: 9.38 mg/kg/injection, schedule: Q01DX001 (ip), vehicle: other 109 % of control | endpoint: mean survival time, dose: 18.75 mg/kg/injection, schedule: Q01DX001 (ip), vehicle: other 110 % of control

O=C(O)C1=NN(c2cccc([N+](=O)[O-])c2)C(=O)C1
inactive: endpoint: mean survival time, dose: 100.0 mg/kg/injection, schedule: Q01DX009 (ip), vehicle: saline with Tween-80 114 % of control | [1] 98 % of control | endpoint: mean survival time, dose: 200.0 mg/kg/injection, schedule: Q01DX009 (ip), vehicle: saline with Tween-80 101 % of control | [2] 104 % of control | endpoint: mean survival time, dose: 400.0 mg/kg/injection, schedule: Q01DX009 (ip), vehicle: saline with Tween-80 95 % of control | [3] 102 % of control

COc1cccc(CC2NCCc3c2[nH]c2ccccc32)c1 (stereo not drawn)
inactive: endpoint: mean survival time, dose: 25.0 mg/kg/injection, schedule: Q01DX001 (ip), vehicle: saline with Tween-80 98 % of control | endpoint: mean survival time, dose: 50.0 mg/kg/injection, schedule: Q01DX001 (ip), vehicle: saline with Tween-80 90 % of control | [5] 87 % of control

CCC1(C)CCC2=C(CCC3C(C)(C(=O)OC)CCCC23C)C1 (stereo not drawn)
inactive: [5] 93 % of control | [6] 89 % of control | [7] 89 % of control

CCC(C(=O)O)C(=O)O.[NH-]CC[NH-].[Pt+2]
inactive: endpoint: mean survival time, dose: 25.0 mg/kg/injection, schedule: Q04DX003 (ip), vehicle: saline with Tween-80 101 % of control | endpoint: mean survival time, dose: 50.0 mg/kg/injection, schedule: Q04DX003 (ip), vehicle: saline with Tween-80 104 % of control | [1] 112 % of control

Cc1ncc(CO)c(C2NOCc3nscc32)c1O (stereo not drawn)
inactive: endpoint: mean survival time, dose: 18.0 mg/kg/injection, schedule: Q01DX009 (ip), vehicle: Klucel (hydroxypropylcellulose) (HPC) 90 % of control | endpoint: mean survival time, dose: 28.0 mg/kg/injection, schedule: Q01DX009 (ip), vehicle: Klucel (hydroxypropylcellulose) (HPC) 89 % of control

CC1(O)CS(=O)(=O)CC1O (stereo not drawn)
inactive: [8] 105 % of control | [9] 103 % of control | [10] 101 % of control

O=C1CSC(=S)N1C1OC(CO)C(O)C1O (stereo not drawn)
inactive: endpoint: mean survival time, dose: 12.5 mg/kg/injection, schedule: Q01DX005 (ip), vehicle: distilled water + Tween-80 111 % of control | endpoint: mean survival time, dose: 25.0 mg/kg/injection, schedule: Q01DX005 (ip), vehicle: distilled water + Tween-80 102 % of control | endpoint: mean survival time, dose: 50.0 mg/kg/injection, schedule: Q01DX005 (ip), vehicle: distilled water + Tween-80 102 % of control | endpoint: mean survival time, dose: 100.0 mg/kg/injection, schedule: Q01DX005 (ip), vehicle: distilled water + Tween-80 101 % of control | endpoint: mean survival time, dose: 200.0 mg/kg/injection, schedule: Q01DX005 (ip), vehicle: distilled water + Tween-80 92 % of control

O=[N+]([O-])c1ccc(/C(CBr)=N/N2CCCCCC2)cc1
inactive: [8] 91 % of control | [9] 92 % of control | [10] 95 % of control

CNC(=O)OCCN(C)OC
inactive: endpoint: mean survival time, dose: 100.0 mg/kg/injection, schedule: Q04DX003 (ip), vehicle: saline 95 % of control | endpoint: mean survival time, dose: 200.0 mg/kg/injection, schedule: Q04DX003 (ip), vehicle: saline 98 % of control | endpoint: mean survival time, dose: 400.0 mg/kg/injection, schedule: Q04DX003 (ip), vehicle: saline 93 % of control

NC(=O)c1c(Br)n(C2OC(CO)C(O)C2O)c2ncnc(N)c12 (stereo not drawn)
inactive: endpoint: mean survival time, dose: 50.0 mg/kg/injection, schedule: Q01DX009 (ip), vehicle: saline with Tween-80 105 % of control

CC(N)(CCO)C(=O)O (stereo not drawn)
inactive: endpoint: mean survival time, dose: 100.0 mg/kg/injection, schedule: Q01DX009 (ip), vehicle: saline sonified 97 % of control | [1] 101 % of control | endpoint: mean survival time, dose: 200.0 mg/kg/injection, schedule: Q01DX009 (ip), vehicle: saline sonified 104 % of control | [2] 101 % of control | endpoint: mean survival time, dose: 400.0 mg/kg/injection, schedule: Q01DX009 (ip), vehicle: saline sonified 103 % of control | [3] 98 % of control

Clc1ccc(Oc2ccccc2)cc1
inactive: [5] 96 % of control | [6] 86 % of control | [7] 91 % of control

Nc1ncnc2nc(C(O)C(O)C(O)CO)[nH]c12 (stereo not drawn)
inactive: endpoint: median survival time, dose: 12.5 mg/kg/injection, schedule: Q01DX005 (ip), vehicle: distilled water + Tween-80 102 % of control | [11] 96 % of control | [12] 98 % of control | [13] 98 % of control | [14] 106 % of control

Nc1ncnc2c1nc(-c1ccccc1)n2C1OC(CO)C(O)C1O (stereo not drawn)
inactive: [11] 100 % of control | [12] 97 % of control | [13] 100 % of control | [14] 100 % of control
